For series [1], the target named is T1, epithelial sodium channel (ENaC) (Canis lupus familiaris, UniProt A0A8I3MKE6+A0A8I3Q679+Q95165).
T1 construct: endogenous in cells; host or cells: primary canine bronchial epithelial cells cultured at air-liquid interface
T1 sequence (A0A8I3Q679 1-649): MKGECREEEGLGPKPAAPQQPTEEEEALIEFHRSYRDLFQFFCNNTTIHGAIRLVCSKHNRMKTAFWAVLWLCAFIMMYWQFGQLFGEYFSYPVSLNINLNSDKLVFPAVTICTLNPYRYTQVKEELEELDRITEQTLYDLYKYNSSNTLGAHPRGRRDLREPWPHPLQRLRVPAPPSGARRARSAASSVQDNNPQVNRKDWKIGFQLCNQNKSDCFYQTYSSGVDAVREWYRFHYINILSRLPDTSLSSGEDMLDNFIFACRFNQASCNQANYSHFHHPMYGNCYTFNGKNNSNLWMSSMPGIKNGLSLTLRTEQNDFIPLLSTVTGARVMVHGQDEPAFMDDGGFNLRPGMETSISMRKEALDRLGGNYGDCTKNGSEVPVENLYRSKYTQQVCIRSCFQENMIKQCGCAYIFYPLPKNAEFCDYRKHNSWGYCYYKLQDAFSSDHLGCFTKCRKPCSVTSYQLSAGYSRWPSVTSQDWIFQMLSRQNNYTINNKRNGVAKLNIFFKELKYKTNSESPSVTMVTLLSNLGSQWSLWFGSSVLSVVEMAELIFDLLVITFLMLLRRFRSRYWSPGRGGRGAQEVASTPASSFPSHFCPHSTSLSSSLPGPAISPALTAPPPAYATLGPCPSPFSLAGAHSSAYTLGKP
T1 sequence (Q95165 1-641): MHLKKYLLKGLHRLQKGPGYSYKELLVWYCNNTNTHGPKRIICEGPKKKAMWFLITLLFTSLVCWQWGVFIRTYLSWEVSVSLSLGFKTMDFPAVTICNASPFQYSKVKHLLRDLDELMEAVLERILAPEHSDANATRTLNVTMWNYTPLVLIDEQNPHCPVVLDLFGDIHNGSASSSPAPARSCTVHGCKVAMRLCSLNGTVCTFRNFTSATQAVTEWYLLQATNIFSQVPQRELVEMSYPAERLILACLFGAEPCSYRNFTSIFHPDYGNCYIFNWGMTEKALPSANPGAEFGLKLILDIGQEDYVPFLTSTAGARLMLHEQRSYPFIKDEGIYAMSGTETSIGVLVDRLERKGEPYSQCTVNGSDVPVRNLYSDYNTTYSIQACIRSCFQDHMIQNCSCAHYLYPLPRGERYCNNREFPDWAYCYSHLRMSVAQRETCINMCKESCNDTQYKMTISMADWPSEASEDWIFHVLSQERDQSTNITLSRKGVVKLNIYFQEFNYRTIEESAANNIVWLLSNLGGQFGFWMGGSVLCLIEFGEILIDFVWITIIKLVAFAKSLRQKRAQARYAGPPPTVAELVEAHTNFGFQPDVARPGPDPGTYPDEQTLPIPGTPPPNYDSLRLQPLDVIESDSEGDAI
T1 sequence (A0A8I3MKE6 1-646): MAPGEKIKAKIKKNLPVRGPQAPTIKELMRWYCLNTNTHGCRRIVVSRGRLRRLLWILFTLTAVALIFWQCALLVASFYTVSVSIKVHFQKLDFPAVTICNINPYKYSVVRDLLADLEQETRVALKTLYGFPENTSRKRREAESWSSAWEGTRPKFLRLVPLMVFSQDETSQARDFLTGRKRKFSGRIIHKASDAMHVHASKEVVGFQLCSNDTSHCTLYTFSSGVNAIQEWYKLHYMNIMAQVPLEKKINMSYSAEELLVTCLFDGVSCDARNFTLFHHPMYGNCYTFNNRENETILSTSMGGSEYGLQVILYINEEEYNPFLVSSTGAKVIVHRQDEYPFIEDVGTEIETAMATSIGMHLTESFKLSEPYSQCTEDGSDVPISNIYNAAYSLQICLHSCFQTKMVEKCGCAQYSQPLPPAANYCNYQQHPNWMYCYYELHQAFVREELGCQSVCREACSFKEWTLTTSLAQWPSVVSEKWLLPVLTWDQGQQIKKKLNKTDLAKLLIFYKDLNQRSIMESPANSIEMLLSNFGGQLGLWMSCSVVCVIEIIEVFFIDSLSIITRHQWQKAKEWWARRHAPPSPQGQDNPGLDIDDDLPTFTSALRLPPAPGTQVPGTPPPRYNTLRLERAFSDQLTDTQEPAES
Description: ENaC blocking activity, short circuit current in airway epithelial monolayers in Ussing chambers. Conditions: canine bronchial epithelia; for ENaC blocking potency relative to Amiloride: fold potency versus amiloride; for IC50: lumenal addition, propranolol 10 μM applied first. It counts as cell-based. The method, then:
To assess epithelial sodium channel blocker potency the compounds of the present invention involves the determination of lumenal drug inhibition of airway epithelial sodium currents measured under short circuit current (ISC) using airway epithelial monolayers mounted in Ussing chambers. Cells obtained from freshly excised human, or dog airways are seeded onto porous 0.4 micrometer Transwell® Permeable Supports (Corning Inc. Acton, Mass.), cultured at air-liquid interface (ALI) conditions in hormonally defined media, and assayed for sodium transport activity (ISC) while bathed in Krebs Bicarbonate Ringer (KBR) in Ussing chambers. All test drug additions are to the lumenal bath with approximately half-log dose additions (from 1×10^−11 M to 6×10^−5 M), and the cumulative change in ISC (decreases) recorded. All drugs are prepared in dimethyl sulfoxide as stock solutions at a concentration of approximately 1×10^−2 and stored at −20° C. Six preparations are typically run in parallel; one preparation per run incorporates 552-02 as a positive control. Before the start of the concentration-effect relationship propranolol, a non-selective […], was applied to the lumenal bath (10 μM) to inhibit the beta agonist component of the designer multiple ligand (DML). All data from the voltage clamps are collected via a computer face and analyzed off-line.
Concentration-effect relationships for all compounds are considered and analyzed Using GraphPad Prism version 3.00 for Windows, GraphPad Software, San Diego Calif. USA. IC50 values, […], are calculated and compared to the 552-02 potency as a positive control.

The target in another series is T2, beta-adrenergic receptor (Canis lupus familiaris, UniProt P54833).
T2 construct: endogenous in cells; host or cells: primary canine bronchial epithelial cells cultured at air-liquid interface
T2 sequence (P54833 whole entry): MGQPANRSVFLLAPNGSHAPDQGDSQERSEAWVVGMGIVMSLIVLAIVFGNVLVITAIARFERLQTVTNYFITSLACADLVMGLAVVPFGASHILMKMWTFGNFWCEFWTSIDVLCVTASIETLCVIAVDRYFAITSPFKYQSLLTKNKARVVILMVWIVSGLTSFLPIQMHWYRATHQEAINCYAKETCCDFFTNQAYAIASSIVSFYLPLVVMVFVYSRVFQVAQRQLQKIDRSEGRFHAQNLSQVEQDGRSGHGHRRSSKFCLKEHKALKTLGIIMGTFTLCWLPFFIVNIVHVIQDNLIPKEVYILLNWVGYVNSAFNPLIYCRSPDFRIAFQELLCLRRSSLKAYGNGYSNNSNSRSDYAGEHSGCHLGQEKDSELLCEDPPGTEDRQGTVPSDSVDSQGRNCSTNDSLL
The series can be described thus: Beta agonist activity, anion secretion short circuit current in airway epithelial monolayers in Ussing chambers. It counts as cell-based, canine. How it is done:
To assess beta agonist activity the compounds of the present invention involves the determination of lumenal drug addition to promote airway epithelial anion currents measured under short circuit current (ISC) using airway epithelial monolayers mounted in Ussing chambers. Cells obtained from freshly excised human, dog, or sheep airways are seeded onto porous 0.4 micron Transwell® Permeable Supports (Corning), cultured at air-liquid interface (ALI) conditions in hormonally defined media, and assayed for anion secretion (ISC) while bathed in Krebs Bicarbonate Ringer (KBR) in Ussing chambers. All test drug additions are to the lumenal bath with approximately half-log dose additions (from 8×10^−10 M to 6.5×10^−5 M), and the cumulative change in ISC (excitation) recorded. All drugs are prepared in dimethyl sulfoxide as stock solutions at a concentration from 1×10^−1 to 1×10^−2 M and stored at −20° C. […] Before the start of the concentration-effect relationship 552-02 a potent sodium channel blocker was applied to the apical surface (1 μM) to eliminate changes in Isc caused by sodium absorption. All data from the voltage clamps are collected via a computer interface and analyzed off-line.
Concentration-effect relationships for all compounds are considered and analyzed Using GraphPad Prism version 3.00 for Windows, GraphPad Software, San Diego Calif. USA.

With `C[C@H](CCCc1ccc(CCCCNC(=N)NC(=O)c2nc(Cl)c(N)nc2N)cc1)NC[C@H](O)c1ccc(O)c(NC=O)c1` [Compound 30, N-(5-{2-[4-(4-{4-[N′-(3,5-diamino-6-chloropyrazine-2-carbonyl)-guanidino]butyl}phenyl)-1-methylbutylamino]-1-(R)-hydroxyethyl}-2-hydroxyphenyl)formamide], the melting point was 120 to 121 °C (dec.). For the same compound, in series [1], the “ENaC blocking potency relative to Amiloride” value was found to be 93 × Amiloride and the IC50 was 8.4 nM. This compound displayed a concentration giving a half-maximal response (EC50) on beta-adrenergic receptor of 71.6 nM.

With `CS(=O)(=O)Nc1cc([C@@H](O)CNCCCCc2ccc(CCCCNC(=N)NC(=O)c3nc(Cl)c(N)nc3N)cc2)ccc1O` [Compound 40, N-(5-{2-[4-(4-{4-[N′-(3,5-diamino-6-chloropyrazine-2-carbonyl)-guanidino]butyl}phenyl)butylamino]-1-(R)-hydroxyethyl}-2-hydroxyphenyl)-methanesulfonamide], the melting point was in the range of 108 to 110 °C. For the same compound, in series [1], the “ENaC blocking potency relative to Amiloride” value worked out at 91 × Amiloride and half-maximal inhibition (IC50) was put at 9.2 nM. This compound yielded a concentration giving a half-maximal response (EC50) at beta-adrenergic receptor of 1580 nM.

The values above are taken from patent US8163758B2 (Parion Sciences, Inc., priority 2006, dated 2012).
